According to ChEMBL document CHEMBL4622948, “SAR of non-hydrolysable analogs of pyridoxal 5'-phosphate against low molecular weight protein tyrosine phosphatase isoforms” (Bioorg Med Chem Lett, 2020):

Key:
Homo sapiens = species: Homo sapiens; test: Selectivity index, ratio of Ki for LMW-PTP isoform B (unknown origin) to Ki for LMW-PTP isoform A (unknown origin)
[1] = molecular target: T1, Low molecular weight phosphotyrosine protein phosphatase (Homo sapiens) (UniProt P24666); test: Inhibition of LMW-PTP isoform A (unknown origin)
T1 sequence (whole entry): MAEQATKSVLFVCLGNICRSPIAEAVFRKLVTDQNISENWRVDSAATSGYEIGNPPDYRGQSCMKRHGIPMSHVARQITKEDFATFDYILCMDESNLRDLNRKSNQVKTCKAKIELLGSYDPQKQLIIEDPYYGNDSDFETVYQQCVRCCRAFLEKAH

[2] = molecular target: T1, Low molecular weight phosphotyrosine protein phosphatase (Homo sapiens); test: Inhibition of LMW-PTP isoform B (unknown origin)
[3] = molecular target: T2, Low molecular weight phosphotyrosine protein phosphatase (Homo sapiens, UniProt P24666); test: Competitive inhibition of LMW-PTP isoform A (unknown origin)
T2 sequence (P24666 whole entry): T1 sequence (whole entry)

[4] = Competitive inhibition of bovine LMW-PTP isoform B using para-Nitrophenyl phosphate as substrate at pH 5 by Lineweaver-Burk double reciprocal plot analysis; design: species or system Bos taurus

SMILES	Ratio (Homo sapiens)	Kis [1]	Kis [2]	Ki [3]	Ki [4]
Cc1ccc(CCP(=O)(O)O)cn1	8.5	1.84 µM	15.6 µM		
Cc1ncc(/C=C/P(=O)(O)O)c(C=O)c1O	22	5.14 µM	113 µM		
Cc1ccc(/C=C/P(=O)(O)O)cc1	4.8	66.8 µM	323 µM		
Cc1ccc(/C=C/P(=O)(O)O)cn1	4	213 µM	842 µM		
Cc1ncc(CCP(=O)(O)O)c(CO)c1O	53	10.4 µM	552 µM		
O=P(O)(O)CCc1cccnc1	10.4	103 µM	1080 µM		
O=P(O)(O)/C=C/c1ccccc1	> 21	482 µM	> 10000 µM		
Cc1ccc(/C=C/P(=O)(O)O)cc1O	0.8	50.3 µM	42.4 µM		
Cc1ncc(CCP(=O)(O)O)c(C=O)c1O	2.9	74.9 µM	218 µM		
O=P(O)(O)/C=C/c1cccnc1	4.4	243 µM	1070 µM		
O=P(O)(O)/C=C/c1cccc(O)c1	37	15.7 µM	580 µM		
O=P(O)(O)C(F)(F)Cc1ccccc1	> 28	359 µM	> 10000 µM		
Cc1ncc(COP(=O)(O)O)c(C=O)c1O [PYRIDOXAL PHOSPHATE ANHYDROUS]				13 µM	7.6 µM
O=P(O)(O)CCc1ccccc1	> 18	552 µM	> 10000 µM		
Cc1ncc(/C=C/P(=O)(O)O)c(CO)c1O	372	16.3 µM	6060 µM		
O=P(O)(O)CCc1cccc(O)c1	4	13 µM	52.2 µM		
Cc1ccc(CCP(=O)(O)O)cc1	2.5	130 µM	323 µM		
Cc1ccc(CCP(=O)(O)O)cc1O	11	3.59 µM	39.9 µM		
